The values below come from ChEMBL document CHEMBL1201862, “PubChem BioAssay data set” (2004).

Holding throughout (test): inhibition of tumour cell growth, NCI panel, 48 h
For assay [1], the system named is SNB-19.
In assay [2] the test system is 786-0.
For assay [3], the system named is CCRF-CEM.
Assay [4] concerns LOX IMVI.
Assay [5] relates to SK-MEL-5.
The subject of assay [6] is HL-60.
Assay [7] relates to CAKI-1.
Assay [8] has as its system OVCAR-8.
Assay [9] deals with KM12.
Assay [10] concerns HCT-116.
Assay [11] relates to SW-620.
Assay [12] deals with UACC-257.
Assay [13] concerns A549.
In assay [14] the test system is UO-31.
Assay [15] concerns NCI-H23.
The test system of assay [16] is OVCAR-5.
In assay [17] the test system is NCI-H226.
Assay [18] has as its system RXF 393.
For assay [19], the system named is A498.

The structures appear in SMILES notation.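 Results reflect a 48-hour exposure of cells in 96-well plates to compound at five concentrations. GI50 = concentration required for 50% inhibition of growth.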 The source made the active and inactive calls. Cut-off read from the data, not from the text of the source: active = GI50 up to about 1.1 µM and inactive = higher.

Regarding `CC(=O)NNc1nc(C)c(C(=O)NNC(=O)C(=O)Nc2ccc(Cl)c([N+](=O)[O-])c2)s1`, the GI50 was > 100 µM (inactive) in assay [1]; 50 µM (inactive) in assay [2]; 21.9 µM (inactive) in [3]; 31.3 µM (inactive) in assay [4]; > 100 µM (inactive) in assay [5]; 39 µM (inactive) in assay [6]. For the same molecule, the GI50 in [7] is > 100 µM (inactive); in assay [8], 54.8 µM (inactive); in [9], 88.9 µM (inactive); in [10] it was 85.3 µM (inactive); in assay [11] it was 32.2 µM (inactive); in [12], 37.4 µM (inactive). Further, the GI50 is 85.5 µM (inactive) in assay [13]; > 100 µM (inactive) in assay [14]; 37.7 µM (inactive) in assay [15]; > 100 µM (inactive) in [16]; > 100 µM (inactive) in assay [17].
For `Nc1ccc(C(=O)N/C(=C\c2ccc3c(c2)OCO3)c2nc3ccc4c(c3[nH]2)C(=O)c2ccccc2C4=O)cc1`, the GI50 in [1] was 30 µM (inactive); in [18], 10.5 µM (inactive); in assay [2], 21.2 µM (inactive); in [3] it was 2.26 µM (inactive); in assay [4] it was 26.1 µM (inactive); in assay [5], 29 µM (inactive). Moreover, the GI50 is 14.7 µM (inactive) in assay [7]; 29.6 µM (inactive) in assay [8]; 17.8 µM (inactive) in [9]; 23.8 µM (inactive) in assay [10]; 27.2 µM (inactive) in assay [11]; 58.7 µM (inactive) in assay [12]. Also, the GI50 in [13] was 21.1 µM (inactive); in assay [14], 2.64 µM (inactive); in [15] it was 14.4 µM (inactive); in assay [16] it was > 100 µM (inactive); in assay [19], 14.4 µM (inactive).
As for `Nc1nc(N)c(-c2ccccc2)c(C(=O)Nc2nccs2)n1`, the GI50 in assay [1], in assay [18], in [2], in assay [3], in assay [4] and in assay [5] was > 100 µM (inactive) in each case. Further, the GI50 in assay [6], in assay [7], in [8], in [9], in assay [10] and in assay [11] was > 100 µM (inactive) each time. Further, the GI50 in assay [12], in assay [13], in assay [14], in assay [15], in assay [16] and in assay [17] was > 100 µM (inactive) each time.
As for `Cc1ccc(S(=O)(=O)N2CCCSCCSCCCSCC2)cc1`, the GI50 in assay [1], in assay [2], in assay [3], in assay [4], in assay [5] and in assay [6] was > 100 µM (inactive) each time. Besides, the GI50 in [8], in [9], in assay [10], in [11], in assay [12] and in assay [13] was > 100 µM (inactive) in each case. Besides, the GI50 in assay [14], in [15] and in [16] was > 100 µM (inactive) each time.
As to `Cc1ccc(Nc2nc(C)c(C(/C=C/c3ccc4c(c3)OCO4)=N/Nc3ccc([N+](=O)[O-])cc3[N+](=O)[O-])s2)c([N+](=O)[O-])c1`, the GI50 in assay [1] is 83 µM (inactive); in assay [18], 38 µM (inactive); in assay [2], 91.2 µM (inactive); in assay [3], 28.2 µM (inactive); in assay [4] it was 16.3 µM (inactive); in assay [6], 21.7 µM (inactive). Also, the GI50 in assay [7] is 25.1 µM (inactive); in assay [8] it was 70.3 µM (inactive); in assay [9] it was 24 µM (inactive); in assay [10], 52.7 µM (inactive); in assay [11] it was 45 µM (inactive); in [12] it was 53 µM (inactive). Moreover, the GI50 is 45.8 µM (inactive) in assay [13]; 21.8 µM (inactive) in assay [14]; 33.2 µM (inactive) in assay [15]; 43.9 µM (inactive) in [16]; 25 µM (inactive) in assay [17].
In the case of `CCOC(=O)NC(=O)c1cn(CCN2CCN(C(=O)CCCCCCCCCCNc3ncnc4[nH]cnc34)CC2)c(=O)[nH]c1=O`, the GI50 in assay [1] is > 100 µM (inactive); in assay [18] it was > 100 µM (inactive); in assay [2], > 100 µM (inactive); in assay [3], > 100 µM (inactive); in assay [4], > 100 µM (inactive); in assay [5], 50.4 µM (inactive). Besides, the GI50 in assay [6] was 46.7 µM (inactive); in assay [7], 79.8 µM (inactive); in assay [8] it was > 100 µM (inactive); in assay [9] it was > 100 µM (inactive); in [10], 40.1 µM (inactive); in assay [11], > 100 µM (inactive). Besides, the GI50 in [12], in assay [13], in [14], in assay [15], in assay [16] and in assay [17] was > 100 µM (inactive) each time.
For the molecule `Cc1ccc(S(=O)(=O)N/N=C(\C(=O)Nc2cccc([N+](=O)[O-])c2)c2nc3ccc([N+](=O)[O-])cc3nc2O)cc1`, the GI50 in [1] is > 100 µM (inactive); in [18], > 100 µM (inactive); in assay [2], 61.9 µM (inactive); in assay [3], 7.64 µM (inactive); in [4], 10.4 µM (inactive); in assay [5], 26 µM (inactive). The GI50 in assay [7] is 23.2 µM (inactive); in assay [8], 54.2 µM (inactive); in assay [9] it was 37.9 µM (inactive); in [10], 27.5 µM (inactive); in assay [11] it was 40.6 µM (inactive); in [12] it was 59.8 µM (inactive). For the same molecule, the GI50 in assay [13] is 31.8 µM (inactive); in [14], 9.33 µM (inactive); in assay [15], 72.4 µM (inactive); in [16], 46.3 µM (inactive); in assay [17] it was 37.2 µM (inactive); in assay [19], 17.1 µM (inactive).
On to `COC(=O)C1=C(C(=O)OC)C2=S(SC3=C2CCCC3)S1` (stereo unspecified), for which the GI50 in [1] is > 100 µM (inactive); in assay [18] it was 13.3 µM (inactive); in [2], 4.11 µM (inactive); in assay [3], 2.98 µM (inactive); in assay [4], 2.79 µM (inactive); in assay [5], 0.378 µM (active). The GI50 was 9.48 µM (inactive) in assay [6]; 20 µM (inactive) in assay [7]; 12.9 µM (inactive) in assay [8]; 20.8 µM (inactive) in assay [9]; 0.467 µM (active) in assay [11]; 37.2 µM (inactive) in assay [12]. The GI50 in [13] is 36.1 µM (inactive); in [14], 68.1 µM (inactive); in assay [15], 24.1 µM (inactive); in assay [16], 27.4 µM (inactive).
